Patent US9994546B2, “Cyclopropylamines as LSD1 inhibitors” (Incyte Corporation, priority 2014, dated 2018)

What follows are compounds tested against LSD-1 enzyme (Homo sapiens (Human), UniProt O60341) (assay: LANCE LSD1/KDM1A demethylase assay (LSD1 histone demethylase biochemical assay)). Conditions: 1 nM LSD-1 enzyme, 1 hour preincubation at 25° C., 0.4 μM biotin-labeled Histone H3 peptide substrate.
Procedure: LANCE LSD1/KDM1A demethylase assay—10 μL of 1 nM LSD-1 enzyme (ENZO BML-SE544-0050) in the assay buffer (50 mM Tris, pH 7.5, 0.01% Tween-20, 25 mM NaCl, 5 mM DTT) were preincubated for 1 hour at 25° C. with 0.8 μL compound/DMSO dotted in black 384 well polystyrene plates. […] After stopping the reactions plates were incubated for 30 minutes and read on a PHERAstar FS plate reader (BMG Labtech).

Row | Compound | IC50
1 | N#CCC1(N2CC(CN[C@@H]3C[C@H]3c3ccccc3)C2)CCC1 (relative stereo) [Example 14, [1-(3-{[(trans-2-Phenylcyclopropyl)amino]methyl}azetidin-1-yl)cyclobutyl]acetonitrile] | ≤ 100 nM
2 | N#CCC1(N2CCC(CN[C@@H]3C[C@H]3c3ccccc3)CC2)CN(C(=O)c2ccc(F)cc2)C1 (relative stereo) [Example 48, [1-(4-Fluorobenzoyl)-3-(4-{[(trans-2-phenylcyclopropyl)amino]methyl}piperidin-1-yl)azetidin-3-yl]acetonitrile] | ≤ 100 nM
3 | CS(=O)(=O)N1CC(CCO)(N2CCC(N[C@@H]3C[C@H]3c3ccccc3)CC2)C1 [Example 93, 2-[1-(methylsulfonyl)-3-(4-{[(1R,2S)-2-phenylcyclopropyl]amino}piperidin-1-yl)azetidin-3-yl]ethanol] | ≤ 100 nM
4 | CCN1CC(CC(=O)O)(N2CCC(N[C@@H]3C[C@H]3c3ccccc3)CC2)C1 [Example 67, [1-ethyl-3-(4-{[(1R,2S)-2-phenylcyclopropyl]amino}piperidin-1-yl)azetidin-3-yl]acetic acid] | ≤ 100 nM
5 | CN(C)C(=O)CC1(N2CCC(N[C@@H]3C[C@H]3c3ccccc3)CC2)CN(C2CCOCC2)C1 [Example 121, N,N-dimethyl-2-[3-(4-{[(1R,2S)-2-phenylcyclopropyl]amino}piperidin-1-yl)-1-(tetrahydro-2H-pyran-4-yl)azetidin-3-yl]acetamide] | ≤ 100 nM
6 | CN1CC(CC#N)(N2CCC(N[C@@H]3C[C@H]3c3ccccc3)CC2)C1 (relative stereo) [Example 2, (1-Methyl-3-{4-[(trans-2-phenylcyclopropyl)amino]piperidin-1-yl}azetidin-3-yl)acetonitrile] | ≤ 100 nM
7 | N#CCC1(N2CCC(N[C@@H]3C[C@H]3c3ccccc3)CC2)CN(C2CCOCC2)C1 [Example 75, [3-(4-{[(1R,2S)-2-phenylcyclopropyl]amino}piperidin-1-yl)-1-(tetrahydro-2H-pyran-4-yl)azetidin-3-yl]acetonitrile] | ≤ 100 nM
8 | CNC(=O)CC1(N2CCC(CN[C@@H]3C[C@H]3c3ccccc3)CC2)CNC1 (relative stereo) [Example 51, N-Methyl-2-(3-(4-((trans-2-phenylcyclopropylamino)methyl)piperidin-1-yl)azetidin-3-yl)acetamide] | ≤ 100 nM
9 | CCS(=O)(=O)N1CC(CC#N)(N2CCC(N[C@@H]3C[C@H]3c3ccccc3)CC2)C1 [Example 62, [1-(ethylsulfonyl)-3-(4-{[(1R,2S)-2-phenylcyclopropyl]amino}piperidin-1-yl)azetidin-3-yl]acetonitrile] | ≤ 100 nM
10 | N#CCC1(N2CCC(N[C@@H]3C[C@H]3c3ccccc3)CC2)CN(C(=O)N2CCC(O)CC2)C1 [Example 87, [1-[(4-hydroxypiperidin-1-yl)carbonyl]-3-(4-{[(1R,2S)-2-phenylcyclopropyl]amino}piperidin-1-yl)azetidin-3-yl]acetonitrile] | ≤ 100 nM
11 | c1ccc([C@@H]2C[C@H]2NCC2CN(C3CCN(c4ccccc4)CC3)C2)cc1 (relative stereo) [Example 29, Trans-2-phenyl-N-{[1-(1-phenylpiperidin-4-yl)azetidin-3-yl]methyl}cyclopropanamine] | ≤ 100 nM
12 | N#CCC1(N2CCC(N[C@@H]3C[C@H]3c3ccccc3)CC2)CN(C(=O)c2ccccc2)C1 (relative stereo) [Example 7, (1-Benzoyl-3-{4-[(trans-2-phenylcyclopropyl)amino]piperidin-1-yl}azetidin-3-yl)acetonitrile] | ≤ 100 nM
13 | CN(C)C(=O)CN1CC(CC#N)(N2CCC(N[C@@H]3C[C@H]3c3ccccc3)CC2)C1 [Example 77, 2-(3-(cyanomethyl)-3-(4-(((1R,2S)-2-phenylcyclopropyl)amino)piperidin-1-yl)azetidin-1-yl)-N,N-dimethylacetamide] | ≤ 100 nM
14 | CN1CC(CC#N)(N2CCC(CN[C@@H]3C[C@H]3c3ccccc3)CC2)C1 (relative stereo) [Example 49, [1-Methyl-3-(4-{[(trans-2-phenylcyclopropyl)amino]methyl}piperidin-1-yl)azetidin-3-yl]acetonitrile] | ≤ 100 nM
15 | N#CCC1(N2CCC(CN[C@@H]3C[C@H]3c3ccccc3)CC2)CN(C(=O)c2cc(F)cc(F)c2)C1 (relative stereo) [Example 44, [1-(3,5-Difluorobenzoyl)-3-(4-{[(trans-2-phenylcyclopropyl)amino]methyl}piperidin-1-yl)azetidin-3-yl]acetonitrile] | ≤ 100 nM
16 | O=C(O)CC1(N2CCC(N[C@@H]3C[C@H]3c3ccccc3)CC2)CN(CCC(F)(F)F)C1 [Example 130, [3-(4-{[(1R,2S)-2-phenylcyclopropyl]amino}piperidin-1-yl)-1-(3,3,3-trifluoropropyl)azetidin-3-yl]acetic acid] | ≤ 100 nM
17 | N#CCC1(N2CCC(N[C@@H]3C[C@H]3c3ccccc3)CC2)CN(C(=O)c2cncs2)C1 [Example 109, [3-(4-{[(1R,2S)-2-phenylcyclopropyl]amino}piperidin-1-yl)-1-(1,3-thiazol-5-ylcarbonyl)azetidin-3-yl]acetonitrile] | ≤ 100 nM
18 | N#CCC1(N2CCC(N[C@H]3C[C@@H]3c3ccccc3)CC2)CNC1 [Example 61, [3-(4-{[(1S,2R)-2-phenylcyclopropyl]amino}piperidin-1-yl)azetidin-3-yl]acetonitrile] | ≤ 100 nM
19 | O=C(O)CC1(N2CCC(N[C@@H]3C[C@H]3c3ccccc3)CC2)CN(Cc2cncnc2)C1 [Example 126, [3-(4-{[(1R,2S)-2-phenylcyclopropyl]amino}piperidin-1-yl)-1-(pyrimidin-5-ylmethyl)azetidin-3-yl]acetic acid] | ≤ 100 nM
20 | N#CCC1(N2CCC(N[C@@H]3C[C@H]3c3ccccc3)CC2)CN(C(=O)[C@@H]2CCCO2)C1 [Example 116, {3-(4-{[(1R,2S)-2-phenylcyclopropyl]amino}piperidin-1-yl)-1-[(2S)-tetrahydrofuran-2-ylcarbonyl]azetidin-3-yl}acetonitrile] | ≤ 100 nM
21 | N#CCC1(N2CCC(N[C@@H]3C[C@H]3c3ccccc3)CC2)CN(C(=O)[C@H]2CCOC2)C1 [Example 115, {3-(4-{[(1R,2S)-2-phenylcyclopropyl]amino}piperidin-1-yl)-1-[(3S)-tetrahydrofuran-3-ylcarbonyl]azetidin-3-yl}acetonitrile] | ≤ 100 nM
22 | CNC(=O)CC1(N2CCC(N[C@@H]3C[C@H]3c3ccccc3)CC2)CCC1 [Example 69, N-methyl-2-[1-(4-{[(1R,2S)-2-phenylcyclopropyl]amino}piperidin-1-yl)cyclobutyl]acetamide] | ≤ 100 nM
23 | N#CCC1(N2CCC(CN[C@@H]3C[C@H]3c3ccccc3)CC2)CN(c2ccc(C(F)(F)F)cn2)C1 (relative stereo) [Example 37, {3-(4-{[(trans-2-Phenylcyclopropyl)amino]methyl}piperidin-1-yl)-1-[5-(trifluoromethyl)pyridin-2-yl]azetidin-3-yl}acetonitrile] | ≤ 100 nM
24 | O=C(O)CC1(N2CCC(N[C@@H]3C[C@H]3c3ccccc3)CC2)CN(Cc2ncccn2)C1 [Example 125, [3-(4-{[(1R,2S)-2-phenylcyclopropyl]amino}piperidin-1-yl)-1-(pyrimidin-2-ylmethyl)azetidin-3-yl]acetic acid] | ≤ 100 nM
